What was measured:
[1] = test system: transgenic Huntington's mice (R6/2); assay: PBT1033 effects in transgenic Huntington's mice (Example 22); format: in vivo, mouse
Source text: This example describes an in vivo study of PBT1033 in transgenic Huntington's mice (R6/2) using the procedure of Nyuyen, Harby and Massa, 2005. During this study, 44 samples were collected for behavioral tests, including Rotarod performance, clasping tests, body weight and lifespan observations, and 24 samples were utilized for pathology assessments, including brain sectioning and staining for measuring lateral ventricle size, brain weight, whole brain western blotting for mutant Htt aggregate accumulation, and immunocytochemistry for Htt aggregates.
GROUP A: 10+6 (pathology) R6/2 MICE, treated daily with PBT1033
GROUP B: 10+6 (pathology) R6/2 MICE, treated daily with SSV solution
GROUP C: 12+6 (pathology) wild type (WT) mice, treated daily with PBT1033
GROUP D: 12+6 (pathology) WT mice, treated daily with SSV solution
3. PBT1033 in SSV solution was orally administered to mice at 0.6 mg/0.1 ml ([…])/20 g. The PBT1033 solution was taken up into a 1-cc syringe attached to a feeding needle and the drug was delivered by oral gavage.
4. Rotarod was assessed as described by Hockly et al., the contents of which are incorporated by reference, with the modification that the SDI Rota—Rod (San Diego Instruments, San Diego), was set to linearly increase in speed to 40 rpm in 4-min ramp time. Performance is at 4th, 8th, 10th, and 12th week, with three days (one for training) per period and three times per day.
5. Body Weight: once per week, start at age 3 weeks.
6. Clasping testing and Behavioral observation: once per week from 5th week and daily during the drug treating.
7. Lifespan observation: Group A and B were treated until they died.
8. Brain lateral ventricle size: mouse brain perfusion, sectioning and staining at age 10 weeks. Mice brains were perfused and fixed with 4% PFA and stained with H&E.
9. Whole Brain Western Blotting: whole mouse brain was homogenized in buffer (10 mM Tris HCl (pH 7.4) 11 mM EDTA Na2/1% Triton X100/complete protease inhibitor mixture and then centrifuged at 7000×g for 90 s. The supernatant was boiled in SDS sample buffer for 5 mm at 100° C.
40 micrograms of total protein was run on a 10% SDS gel with a 4% stacking gel. Antibody: anti-GAPDH (1:5000), EM48 anti-Htt antibody (1:1000)
10. Brain weight: brain weighed before freezing at −80° C.
11. Immunohistochemistry was performed in accordance with the procedure in Assay 15, hereinabove.

[2] = test system: healthy volunteers; assay: Clinical study of 1033, single and multiple oral doses (Example 23); format: in vivo
Experimental: 1033 was administered to healthy volunteers in a 2-part study comprising single dose administration (Stage A) and multidose administration (Stage B).
The objectives of the following trials were to determine the safety, tolerability and pharmacokinetics of single and multiple oral doses of 1033 in healthy volunteers. Double-blind studies were conducted. The protocol included safety measures designed to capture the potential human adverse effects. A total of 65 healthy subjects have been exposed to doses of 1033 (41 single dose, 24 multiple dose).
In Stage A, fifty five (55) healthy male subjects aged 18-50 years were randomised (3:1) to receive a single oral dose of either placebo or 1033 at one of 7 dose levels (25, 50, 100, 200, 300, 500 or 800 mg).
In Stage B, thirty two (32) healthy male and female subjects aged 45-75 years (eight subjects per dose level) were randomised (3:1) to receive a daily oral dose over 7 consecutive days of either placebo or 1033 at one of 4 dose levels (200, 400, 600 or 800 mg). Each dose level comprised of 4 males and 4 females; the randomisation schedule ensuring that 1 subject/sex received placebo and 3 subjects/sex received 1033.

[3] = Mice plasma concentration; format: in vivo
[4] = B:P Ratio; format: in vivo

CN(C)Cc1ccc2c(Cl)cc(Cl)c(O)c2n1.Cl [compound 1033, 5,7-Dichloro-2-dimethylaminomethyl-quinolin-8-ol hydrochloride]
life span ([1]; Group A (PBT1033) compared with Group B (SSV)): survived significantly longer | clasping latency and duration ([1]; Group B (SSV) compared with Group A (PBT1033)): significantly greater | body weight ([1]; Group B (SSV) vs A, C and D groups): significantly decreased | brain weight ([1]; R6/2 mice, Group A): 0.373±0.0228 | rotarod performance time ([1]; R6/2 mice, Group A, 10th week): 28 ± 4 s | rotarod performance time ([1]; R6/2 mice, Group A, 12 week): 26 ± 4 s | Lateral ventricle area ([1]; R6/2 mice, Group A, age 10 weeks): 0.36±0.086 mm^2 | mutant Huntingtin (Htt) protein aggregates, Western analysis ([1]; whole brain, HDexon1 mice): not in treated animals | tolerability, single oral dose ([2]; Stage A, healthy male volunteers aged 18 to 50 years, 25-800 mg): well tolerated | clinical laboratory evaluations and physical assessments ([2]; Stage A, single oral dose): No clinically significant or relevant changes | incidence of adverse events ([2]; Stage A, single oral dose): 43.9% | tolerability, multiple dose ([2]; Stage B, healthy elderly subjects, daily oral dose over 7 days, 200-800 mg): generally well tolerated | Mice plasma concentration [3]: Up to 500 ng/ml | B:P Ratio ([4]; at 5 min): 12.85 | B:P Ratio ([4]; at 60 min): 9.45
